Here are results for two molecules from US20190053490A1, “USE OF ACTIVE SUBSTANCES FOR CONTROLLING VIRUS INFECTION IN PLANTS” (Bayer CropScience Aktiengesellschaft, priority 2016, published 2019).

Assay [1] deals with Turnip crinkle virus (TCV). The experiment in a line: Antiviral efficacy against TCV. In kind it is in vivo. The note with it: 100 ppm. An excerpt: (§1) Similar results were obtained with DFPM with the unrelated viruses Turnip crinkle virus (TCV,) and Cauliflower mosaic virus (CaMV). The TCV belongs to the Tombusviridae family and infects various types of plant species including the common plant models A. thaliana and N. benthamiana. Its genome is another example of +strand RNA virus. The CaMV belongs to the Caulimoviridae family. It infects mostly Brassicaceae such as turnip and cabbage, but is also able to infect A. thaliana. CaMV consists of a double-stranded DNA molecule.

The subject of assay [2] is RNA silencing pathway (SULPHUR transcript) in SUC-SUL Arabidopsis reporter plants. Put plainly: SUC-SUL Arabidopsis reporter plants, percentage of chlorosis (seedlings). In kind it is in vivo, A. thaliana. The conditions noted are these: 300 ppm spray, seedlings five days post-germination, assessed 14 days after treatment. From the text: The plants' RNA silencing pathway can be easily monitored with certain artificially-created reporter plants called the “SUC-SUL Arabidopsis reporter plants” (Dunoyer et al., Nat. Genet. 37, 1356-1360, 2005). The SUC-SUL Arabidopsis reporter plants are transgenic plants expressing an inverted-repeat (IR) double-stranded RNA designed to target the SULPHUR (SUL) transcript in the vasculature under the control of the SUC2 promoter (Truernit et al., Planta 196(3), 564-570, 1995). Once expressed, the dsRNA is processed into small interfering RNAs directing non-cell autonomous post-transcriptional gene silencing of the SULPHUR transcript, in turn causing vein-centered chlorosis. Since the observed chlorosis results from the silencing of the SULPHUR transcript, an expansion of the chlorosis, observable directly on the plants, is correlated with an intensification of the RNA silencing pathway at the molecular level. […] The effects of the treatments on the SUC-SUL reporter plants were assessed 14 days after treatment under trans-illumination and digitally recorded with a stereo-microscope by measuring the surface and intensity of the chlorotic zone (percentage of chlorosis). […]

In assay [3] the test system is Turnip mosaic virus (TuMV-GFP). Put plainly: Antiviral efficacy against TuMV-GFP on Arabidopsis. In kind it is in vivo. The note with it: 100 or 200 ppm sprayed 3 days before infection. The protocol: The Turnip mosaic virus (TuMV) belongs to the Potyviridae, the largest family of known plant viruses. This virus infects a wide range of plants, in particular Brassicaceae. TuMV genome consists of a positive-sense single-stranded RNA molecule (+ssRNA). The antiviral efficacy of DFMP was tested with a fluorescently-tagged potyvirus (TuMV-GFP) in order to specifically pinpoint when and where the effect of the molecules is induced during virus primary infection, as well as its local or systemic spread.
Arabidopsis plants were sprayed with 100 or 200 ppm of DFMP 3 days before infecting the plants with the TuMV-GFP virus. Virus titers were measured by qPCR and/or virus protein accumulation on Western blot analyses and by counting the number of primary infection foci under UV light in the case of the TuMV-GFP.

Assay [4] deals with RNAi pathway (SUL transcript, SUL protein, SUL siRNAs) in SUC-SUL Arabidopsis plants. The experiment in a line: Molecular confirmation in four-week-old SUC-SUL Arabidopsis plants. Type of assay: in vivo. The note with it: 200 ppm spray, seven days after treatment. An excerpt:
The enhancing effect of DFPM on the RNAi machinery has been validated at the phenotypic and molecular levels. Four-week-old SUC-SUL Arabidopsis plants at rosette stage were sprayed with DFPM at 200 ppm. […] The plant aerial tissues were collected and analyzed molecularly using state-of-the-art methodologies. […] Furthermore, these effects were associated with an over-accumulation of both SUL 21-nt and 24-nt long siRNAs derived from the transgenic SUL.

For assay [5], the system named is ABA-dependent gene expression and ABA-induced stomatal closure. The conditions noted are these: in vivo; cited from earlier work.
The test system of assay [6] is PHYTOALEXIN DEFICIENT4 (PAD4) and ENHANCED DISEASE SUSCEPTIBILITY1 (EDS1). The conditions noted are these: in vivo; cited from earlier work.
Assay [7] relates to Bean pod mottle virus (BPMV-GFP). The experiment in a line: Antiviral efficacy against BPMV-GFP on soybean plants. The note with it: seven days-post-infection. In kind it is in vivo. On the procedure: The Bean pod mottle virus (BPMV) is a plant pathogenic virus of the family Comoviridae. This virus infects legumes and more particularly soybean. BPMV genome consists of a bipartite positive-sense single-stranded RNA molecule (+ssRNA). The antiviral efficacy of silencing enhancers was tested with a fluorescently-tagged comoviruss (BPMV-GFP) in order to specifically pinpoint when and where the effect of the molecules is induced during virus primary infection, local or systemic spread.
Soybean plants were sprayed with 100 or 200 ppm of DFPM and emulsifiable concentrate (EC) Premix one day before to infect the plants with the BPMV-GFP virus. Twelve replicates were used for each condition.

Assay [8] concerns Cauliflower mosaic virus (CaMV). Put plainly: Antiviral efficacy against CaMV. Type of assay: in vivo. The conditions noted are these: 100 ppm.
Excerpt: as §1

Assay [9] has as its system SA-inducible pathogenesis-related (PR)-1 proteins. The note with it: infiltrated leaves; cited from earlier work.
Assay [10] deals with Pseudomonas syringae pv tabaci. The conditions noted are these: cited from earlier work.
Assay [11] has as its system tobacco mosaic virus (TMV). The note with it: cited from earlier work.
The mark [12] stands for this setting: 100 ppm sprayed one day before infection.
[13] abbreviates: 200 ppm sprayed one day before infection.

Regarding `S=C(c1ccc(-c2ccc(Cl)c(Cl)c2)o1)N1CCCCC1` [DFPM, [5-(3,4-Dichlorophenyl)Furan-2-yl]-Piperidin-1-ylMethanethione], in assay [1], the “virus accumulation on inoculated leaves and systemic tissues (TCV-derived P38 mRNA)” value is given as “strong reduction”. For the same molecule, in assay [2], the percentage of chlorosis result was “significant increase”. The “virus accumulation on inoculated leaves (infection foci, FIG. 2)” value in assay [3] (five days post-infection) was “strong reduction”. The “accumulation of virus titers” value in assay [3] (five days-post-infection) is on record as “clear reduction”. Moreover, in [3] (six days post-infection), the “virus accumulation on systemic tissues (TuMV-derived HcPro mRNA levels, FIG. 3)” value was “strong reduction”. For the same molecule, in assay [4] (aerial tissues), the “SUL 21-nt and 24-nt long siRNAs” value is on record as “over-accumulation”; the “SUL protein levels (Western blot)” value was “reductions in SUL protein levels”; the “SUL transcript levels (real-time qRT-PCR, FIG. 1)” value is reported as “reductions in SUL transcript levels”. In assay [4] (vs DMSO only), the “RNAi-dependent vein-centered chlorotic phenotype” value is listed as “clear expansion”. In addition, in [5], the “ABA-dependent gene expression in plant” value is “rapidly downregulates” and the ABA-induced stomatal closure entry is listed as “inhibits”. In [6], the “expression of plant defense-related genes including PAD4 and EDS1” value is recorded as “stimulates”. In [7] (100 or 200 ppm), the “BPMV fluorescence on soybean” value was “clear reduction” and the “number of plants showing BPMV symptoms” value is given as “clear reduction”. Further, in [7] (setting [12]), the “Average of Percentage of BPMV fluorescence” value was found to be 31% and the “Percentage of plants showing BPMV symptoms” value is on record as 55%. Also, in [7] (setting [13]), the “Average of Percentage of BPMV fluorescence” value is reported as 8% and the “Percentage of plants showing BPMV symptoms” value is recorded as 10%. Also, the “virus accumulation on inoculated leaves and systemic tissues (CaMV-derived P6 mRNA)” value in assay [8] was “strong reduction”.

`COC(=O)N(OC)c1ccccc1COc1ccn(-c2ccc(Cl)cc2)n1` [Pyraclostrobin]: in [9], the “accumulation of SA-inducible PR-1 proteins” value was “did not cause the accumulation”. In addition, in assay [10], the “resistance of tobacco against infection by Pseudomonas syringae pv tabaci” value is recorded as “enhance the resistance”. In addition, the “TMV resistance in NahG transgenic tobacco plants” value in [11] (NahG transgenic tobacco unable to accumulate salicylic acid) was “able to enhance TMV resistance”. Also, in assay [11] (tobacco), the “resistance of tobacco against infection by TMV” value is “enhance the resistance”.
